Source: ChEMBL document CHEMBL4321865, “Discovery of Novel Inhibitors of LpxC Displaying Potent in Vitro Activity against Gram-Negative Bacteria” (J Med Chem, 2020)
In brackets after ≈: the same amount, converted by molar mass.

What was measured:
physchem [1] = conditions: DMSO, pH 7
Description: Solubility of the compound in DMSO at pH 7 incubated for 24 hrs by LC-UV method

Pseudomonas aeruginosa [2] = assay: microbe, parasite or virus in culture; conditions: ATCC 27853
Description: Antimicrobial activity against Pseudomonas aeruginosa ATCC 27853 by broth microdilution method

physchem [3] = conditions: DMSO, pH 9
Description: Solubility of the compound in DMSO at pH 9 incubated for 24 hrs by LC-UV method

physchem [4] = conditions: DMSO, pH 4
Description: Solubility of the compound in DMSO at pH 4 incubated for 24 hrs by LC-UV method

Escherichia coli = assay: microbe, parasite or virus in culture; conditions: ATCC 25922
Description: Antibacterial activity against wild-type Escherichia coli ATCC 25922 by broth microdilution method

Klebsiella pneumoniae = assay: microbe, parasite or virus in culture; conditions: T 6474
Description: Antibacterial activity against multi-drug resistant Klebsiella pneumoniae T 6474 by broth microdilution method

Pseudomonas aeruginosa [5] = assay: microbe, parasite or virus in culture; conditions: PAO1
Description: Antimicrobial activity against wild-type Pseudomonas aeruginosa PAO1 by broth microdilution method

physchem [6] = conditions: n-octanol/phosphate buffered saline, pH 7.4
Description: n-Octanol/phosphate buffered saline partition coefficient, log D of the compound at pH 7.4 by LC-UV method

[7] = test system: T1, UDP-3-O-acyl-N-acetylglucosamine deacetylase (Pseudomonas aeruginosa (strain ATCC 15692 / PAO1 / 1C / PRS 101 / LMG12228)), P47205 [C40S]
T1 sequence (whole entry): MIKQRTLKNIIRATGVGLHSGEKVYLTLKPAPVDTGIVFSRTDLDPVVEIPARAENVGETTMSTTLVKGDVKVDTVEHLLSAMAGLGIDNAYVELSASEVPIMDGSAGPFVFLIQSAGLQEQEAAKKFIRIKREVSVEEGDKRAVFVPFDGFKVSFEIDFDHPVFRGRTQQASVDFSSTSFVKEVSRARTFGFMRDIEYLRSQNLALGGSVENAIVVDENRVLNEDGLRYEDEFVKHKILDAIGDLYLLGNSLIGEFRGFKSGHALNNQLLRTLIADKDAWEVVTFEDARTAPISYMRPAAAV

[8] = test system: T2, UDP-3-O-acyl-N-acetylglucosamine deacetylase (Escherichia coli K-12), P0A725 [C125S]
T2 sequence (whole entry): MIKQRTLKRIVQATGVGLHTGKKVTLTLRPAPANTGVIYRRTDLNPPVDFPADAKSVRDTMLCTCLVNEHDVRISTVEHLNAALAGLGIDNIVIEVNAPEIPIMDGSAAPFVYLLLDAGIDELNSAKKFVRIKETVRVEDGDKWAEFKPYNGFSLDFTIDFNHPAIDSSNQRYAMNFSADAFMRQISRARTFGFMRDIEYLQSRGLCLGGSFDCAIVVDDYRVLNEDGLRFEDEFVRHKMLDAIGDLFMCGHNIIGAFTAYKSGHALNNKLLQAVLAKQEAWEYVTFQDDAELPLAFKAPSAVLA

Structure (SMILES) | solubility at 24 h (physchem [1]) [µg/mL] | MIC (Pseudomonas aeruginosa [2]) [µg/mL] | solubility at 24 h (physchem [3]) [µg/mL] | solubility at 24 h (physchem [4]) [µg/mL] | MIC (Escherichia coli) [µg/mL] | MIC (Klebsiella pneumoniae) [µg/mL] | MIC (Pseudomonas aeruginosa [5]) [µg/mL] | logD (physchem [6]) | ΔTm [7] [°C] | ΔTm [8] [°C]
C[C@@](CCN1Cc2cc(C#Cc3ccc([C@H](O)CO)cc3)sc2C1=O)(C(=O)NO)S(C)(=O)=O | 300 (≈ 609 µM) | 1 (≈ 2.03 µM) | 814 (≈ 1650 µM) | 230 (≈ 467 µM) | 0.5 (≈ 1.02 µM) | 1 (≈ 2.03 µM) | 2 (≈ 4.06 µM) | 0.8 | 14.3 | 12.1
C[C@@](CCN1Cc2cc(C#CC#C[C@@H]3C[C@H]3CO)cn2C1=O)(C(=O)NO)S(C)(=O)=O |  | 0.5 (≈ 1.15 µM) |  | 600 (≈ 1380 µM) | 0.12 (≈ 0.277 µM) | 0.25 (≈ 0.577 µM) | 0.5 (≈ 1.15 µM) |  | 13.6 | 10.8
C[C@@](CCN1Cc2cc(C#CC#C[C@H](O)CO)cn2C1=O)(C(=O)NO)S(C)(=O)=O |  | 4 (≈ 9.45 µM) |  |  | 8 (≈ 18.9 µM) | 8 (≈ 18.9 µM) | 8 (≈ 18.9 µM) |  | 10.3 | 7.3
C[C@@](CCN1Cc2cc(C#CC#CC3(O)COC3)cn2C1=O)(C(=O)NO)S(C)(=O)=O | > 740 | 2 (≈ 4.59 µM) | > 740 | > 740 | 1 (≈ 2.3 µM) | 2 (≈ 4.59 µM) | 4 (≈ 9.19 µM) | 0.3 | 11.3 | 8.8
C[C@@](CCN1Cc2cc(C#Cc3ccc([C@@H]4C[C@H]4CO)cc3)cn2C1=O)(C(=O)NO)S(C)(=O)=O | 112 (≈ 231 µM) | 0.5 (≈ 1.03 µM) | 568 (≈ 1170 µM) | 73 (≈ 150 µM) | ≤ 0.06 | ≤ 0.06 | 1 (≈ 2.06 µM) | 2 | 13.4 | 12.1
C[C@@](CCN1Cc2cc(C#Cc3ccc(CNS(C)(=O)=O)cc3)cn2C1=O)(C(=O)NO)S(C)(=O)=O | 3 (≈ 5.74 µM) | 1 (≈ 1.91 µM) | 56 (≈ 107 µM) | 1 (≈ 1.91 µM) | 0.25 (≈ 0.478 µM) | 0.5 (≈ 0.957 µM) | 1 (≈ 1.91 µM) | 1 | 13.2 | 11.2
CC(C)(O)c1ccc(C#Cc2cc3n(c2)C(=O)N(CC[C@](C)(C(=O)NO)S(C)(=O)=O)C3)cc1 | 110 (≈ 232 µM) | 0.5 (≈ 1.06 µM) | 556 (≈ 1170 µM) | 70 (≈ 148 µM) | 0.12 (≈ 0.253 µM) | 0.25 (≈ 0.528 µM) | 1 (≈ 2.11 µM) | 1.9 | 13.7 | 11.8
CC(C)(O)C#CC#Cc1cc2c(s1)C(=O)N(CC[C@](C)(C(=O)NO)S(C)(=O)=O)C2 | > 740 | 1 (≈ 2.28 µM) | > 740 | > 740 | 0.5 (≈ 1.14 µM) | 2 (≈ 4.56 µM) | 2 (≈ 4.56 µM) | 1.2 | 13.6 | 9.9
CC(C)(O)c1ccc(C#Cc2ccc3c(c2)CN(CC[C@](C)(C(=O)NO)S(C)(=O)=O)C3=O)cc1 | 7 (≈ 14.4 µM) | 4 (≈ 8.25 µM) | 136 (≈ 281 µM) | 4 (≈ 8.25 µM) | 0.25 (≈ 0.516 µM) | 0.5 (≈ 1.03 µM) | 8 (≈ 16.5 µM) | 2.3 | 12.8 | 9.5
C[C@@](CCN1Cc2cc(C#Cc3ccc(C4(CO)CC4)cc3)cn2C1=O)(C(=O)NO)S(C)(=O)=O | 7 (≈ 14.4 µM) | 0.5 (≈ 1.03 µM) | 56 (≈ 115 µM) | 5 (≈ 10.3 µM) | 0.12 (≈ 0.247 µM) | 0.25 (≈ 0.515 µM) | 0.5 (≈ 1.03 µM) | 2 | 13.6 | 11.8
CC(C)(O)C#CC#Cc1cc2n(c1)C(=O)N(CC[C@](C)(C(=O)NO)S(C)(=O)=O)C2 | > 710 | 1 (≈ 2.37 µM) | > 710 | 398 (≈ 944 µM) | 0.5 (≈ 1.19 µM) | 1 (≈ 2.37 µM) | 2 (≈ 4.75 µM) | 0.9 | 12.3 | 9.9
CC(C)(O)C#CC#Cc1ccc2c(c1)CN(CC[C@](C)(C(=O)NO)S(C)(=O)=O)C2=O | 97 (≈ 224 µM) | 2 (≈ 4.62 µM) | 564 (≈ 1300 µM) | 71 (≈ 164 µM) | 1 (≈ 2.31 µM) | 2 (≈ 4.62 µM) | 2 (≈ 4.62 µM) | 1.2 | 12.6 | 8.5
C[C@@](CCN1Cc2cc(C#Cc3ccc(CN4CCOCC4)cc3)sc2C1=O)(C(=O)NO)S(C)(=O)=O | 155 (≈ 292 µM) | 1 (≈ 1.88 µM) | 571 (≈ 1070 µM) | > 900 | ≤ 0.06 | 0.12 (≈ 0.226 µM) | 1 (≈ 1.88 µM) | 1.8 | 15.5 | 13
C[C@@](CCN1Cc2cc(C#Cc3ccc(CN4CCOCC4)cc3)ccc2C1=O)(C(=O)NO)S(C)(=O)=O | 148 (≈ 282 µM) | 2 (≈ 3.8 µM) | > 890 | > 890 | 0.12 (≈ 0.228 µM) | 0.5 (≈ 0.951 µM) | 2 (≈ 3.8 µM) | 1.8 | 13.8 | 11
C[C@@](CCN1Cc2cc(C#Cc3ccc(C4(O)COC4)cc3)cn2C1=O)(C(=O)NO)S(C)(=O)=O | > 820 | 0.5 (≈ 1.03 µM) | > 820 | 195 (≈ 400 µM) | 0.12 (≈ 0.246 µM) | 0.5 (≈ 1.03 µM) | 1 (≈ 2.05 µM) | 1.2 | 13 | 10.8
C[C@@](CCN1Cc2cc(C#CC#C[C@@H]3C[C@H]3CO)sc2C1=O)(C(=O)NO)S(C)(=O)=O | 377 (≈ 837 µM) | 0.5 (≈ 1.11 µM) | 380 (≈ 843 µM) | 464 (≈ 1030 µM) | 0.12 (≈ 0.266 µM) | 0.25 (≈ 0.555 µM) | 0.5 (≈ 1.11 µM) | 1.3 | 15 | 11.2
C[C@@](CCN1Cc2cc(C#CC#CCNS(C)(=O)=O)cn2C1=O)(C(=O)NO)S(C)(=O)=O |  | 4 (≈ 8.5 µM) |  |  | 2 (≈ 4.25 µM) | 4 (≈ 8.5 µM) | 1 (≈ 2.13 µM) |  | 10.8 | 8
C[C@@](CCN1Cc2cc(C#CC#CC3(O)COC3)ccc2C1=O)(C(=O)NO)S(C)(=O)=O |  | 8 (≈ 17.9 µM) |  |  | 16 (≈ 35.8 µM) | 8 (≈ 17.9 µM) | 4 (≈ 8.96 µM) |  | 11.6 | 7
C[C@@](CCN1Cc2cc(C#Cc3ccc(CN4CCOCC4)cc3)cn2C1=O)(C(=O)NO)S(C)(=O)=O | 68 (≈ 132 µM) | 1 (≈ 1.94 µM) | 621 (≈ 1210 µM) | 802 (≈ 1560 µM) |  | 0.25 (≈ 0.486 µM) | 1 (≈ 1.94 µM) | 1.6 | 13.6 to 13.9 | 11.9
